In assay [1] the test system is IL-6 production from A549 cells. In words: Inhibitory activity on IL-6 production from A549 cells (TNF-α stimulated, ELISA). It is filed as cell-based. The note with it: A549 cells (human lung epithelial cell line), TNF-α stimulation, 24 hours, read-out: 50% inhibitory concentration (IC50) on IL-6 production. The procedure:
(1) The Measurement of an Inhibitory Activity on IL-6 Production from A549 Cells
1.5×10^4 of A549 cells (human lung epithelial cell line) were suspended in 100 μL of Dulbecco's Modified Eagle Medium (DMEM) containing 0.5% fetal bovine serum (abbreviated as FBS) and incubated for a day and night in 96 well-microplate. 20 μL of the test compound dissolved in dimethylsulfoxide (DMSO) at various concentrations and 80 μL of tumor necrosis factor-α (TNF-α (Genzyme Co., cat. No. TNF-H)) dissolved in serum-free DMEM at the concentration of 12.5 ng/mL were added thereto. After the incubation for 24 hours, the supernatant (100 μL) was collected to measure the amount of IL-6 being produced using enzyme linked immuno […] assay (ELISA) (R&D Systems Co., cat. No. D6050). Then the inhibitory activity of the test compound was calculated and the 50% inhibitory concentration (IC50) was determined.
For orientation: An ELISA detects its analyte on a solid surface through an enzyme-linked reagent.

Assay [2] deals with IL-6 production from human synovial cells. In words: Inhibitory activity on IL-6 production from human synovial cells (IL-1β stimulated, ELISA). The assay is classed as cell-based. To be noted: Synovial cell, synovial cells from rheumatoid arthritis patients, IL-1β stimulation, 24 hours, read-out: 50% inhibitory concentration (IC50) on IL-6 production. The procedure:
(2) The Measurement of an Inhibitory Activity on IL-6 Production from Human Synovial Cells
3.0×10^3 of synovial cells from rheumatoid arthritis patients were suspended in 200 μL of DMEM containing 10% FBS and incubated for a day and night in 96 well-microplate, followed by the incubation for 5 hours in serum-free DMEM. 20 μL of the test compound dissolved in DMSO at various concentrations and 80 μL of interleukin-1β (IL-1β (Genzyme Co., cat. No. 80-3688-01)) dissolved in DMEM containing 2.5% fetal bovine serum at the concentration of 5 ng/mL were added thereto. After the incubation for 24 hours, the supernatant (100 μL) was collected to measure the amount of IL-6 being produced using ELISA (R&D Systems Co., cat. No. D6050). Then the inhibitory activity of the test compound was calculated and the 50% inhibitory concentration (IC50) was determined.

SMILES strings stand for the structures.

Consider `O=C(CCCC[C@@H](O)c1ccc(-c2ccc(Cl)cc2)cc1)NO` [example 3], for which the IC50 in assay [1] turned out to be 52 nM; in assay [2] it was 41 nM.

For the origin of these results see US6770644B1, “Hydroxamic acid derivatives, process for the production thereof and drug containing the same as the active ingredient” (Ono Pharmaceuticals Co., Ltd., priority 1999, dated 2004).
